The values below come from patent EP1488698A1, “Compositions for descreasing intracellular inositol trisphosphate concentration and uses thereof” (priority 1995, dated 1997).

Marks after values point to notes of the source that are not given here.

Data set [1] is described as follows: Lysosphingolipid loading of isolated neuronal plasma membrane (fluorescence tagging). The data set is classed as in vitro ADME, chick. The conditions noted are these: Plasma Membrane Suspension, 10 μmolar exposure. The text has this:
(§1) Total lipids were removed from the neuron samples by repeated extraction with chloroform:methanol (2:1, vol:vol). The lysosphingolipids were separated from total neuronal lipid in 90 ± 5 % recovery yield (n = 10) by the stepped chromatographic procedure of Van Veldhoven et al. (Anal. Biochem. 183:177-189, 1989). The recovered lysosphingolipids were stably tagged with NBDZF by the rapid procedure of Nozowa et al. (supra). The fluorescence tagged neuronal lysosphingolipids were separated in parallel with reference standards NBDZF-Sph, NBDZF-Psy, and NBDZF-Lsm on high performance silica gel thin layer chromatography plates with acetonitrile:H2O (10:0.5, vol:vol). The highly fluorescent, well separated bands were scraped from the plate. The fluorescence tagged lysosphingolipids are eluted from the scraped silica gel with methanol:1 N HCl (1:0.02, vol:vol). The fluorescence tagged lysosphingolipid eluates were quantitated against reference standards by fluorescence measurement in a Perkin-Elmer LS-5 Fluorescence Spectrometer.
Physiologically active phospholipase C is present on the endofacial portion of the plasma membrane. A procedure for examining its activity in an intact membrane is provided. The neuronal membrane preparation described below is useful for determining lysosphingolipid effects on the phosphatidylinositol kinase and phospholipase C activities in intact membranes. One hundred Petri dishes of cultured cortical neurons were incubated overnight with 50 µCi [^3H]myo-inositol per mL of culture medium. Ten Petri dish-samples of cultured neurons (1 X 10^8 neurons; 23 ± 2 mg protein, n = 15) were pooled to produce 2.4 ± 0.2 mg plasma membrane by the following procedure. The collected neurons were homogenized in 5 mL 0.32 M sucrose and centrifuged at 1000 X g for 15 minutes. The supernatant was layered on top of 2 ml 1.2 M sucrose and centrifuged at 300,000 X g for 20 minutes. The sedimented pellet was resuspended by sonication for 10 seconds in 50 mM Tris buffer (pH 7.4), containing 0.3 µM CaCl2, 1 mM MgCl2, and 0.01% ascorbic acid.
The suspended plasma membrane preparation was apportioned into 250 µl samples, each providing approximately 100 µg membrane protein. Sphingosine, psychosine, and lysosphingomyelin were added to each plasma membrane sample. […] Samples were analyzed for lysosphingolipid loading (i.e., membrane lysosphingolipid content following exposure to exogenous sphingolipid) by fluorescence tagging. Table 2 provides the results of exposure of plasma membrane samples to 10 µM lysosphingolipids. Values are reported in pmoles lysosphingolipid/mg plasma membrane protein. Values obtained for isolated plasma membrane and intact neurons are compared.

In data set [2] the test system is primary chick cortical neurons. Nature of the data set: Phosphoinositide hydrolysis assay (InsP3 production) in cultured primary cortical neurons. It is filed as cell-based. The conditions noted are these: for Ins-P-n with Lysosphinogolipid Modulator, agonist Aspartate: 100 μM Aspartate, 20 min, neurons preincubated with 20 μM modulator (or 20 μM + 20 μM Sphingosine), washed, normalized to control = 1.00; for enhancement of InsP3 level caused by sphingosine or by metabotropic glutamate receptor agonists / InsP3 signalling: cortical neurons; for InsP3 signalling: as shown in Table 1. How it is done: The neurons were seeded in 24-well plastic tissue culture plates that had been coated with L-polylysine.
Receptor-stimulated and basal unstimulated hydrolysis of phosphoinositides was measured by the following procedure. […] The cells were then washed twice with 1 ml Dulbecco's phosphate-buffered saline (PBS) and 0.5 ml of PBS containing 4.5 g/L glucose was added. Sphingosine, psychosine, lysosulphatide, or lysosphingomyelin, prepared as the hydrochloride salt dissolved in water, were then added to produce the desired extracellular concentration in specific wells, […] The cells were then washed twice with 1 ml PBS, and pre-incubated for 15 minutes at 37°C with 0.5 ml PBS containing 10 mM LiCl and the compound to be tested was added. […] The tubes were vortexed thoroughly, then centrifuged at 500 x g for 5 minutes to separate the aqueous and chloroform phases. For each sample, a 1.5-ml aliquot of the upper (aqueous) phase was applied to a small column containing BioRad AG1X8 resin (formate form). Free [^3H]inositol and [^3H]glycerophosphoinositol were washed through the column with 5 ml of a solution containing 5 mM sodium borate and 60 mM sodium formate. The total phosphorylated [^3H] inositol fraction was eluted from the column for radiometric scintillation spectrometry analysis with 3 ml 1.0 M ammonium formate/0.1 M formic acid.
In addition, a 0.5 ml aliquot of the lower (chloroform) phase of each sample was analyzed radiometrically by scintillation spectrometry in order to determine the quantity of lipid-bound [^3H]myo-inositol. Estimation of phosphoinositide hydrolysis by phospholipase C is based upon the quantity of [^3H]inositol phosphates produced, and is expressed as the percentage of the latter relative to total free and componential [^3H]inositol (dpm ammonium formate + dpm chloroform fractions).

Data set [3] concerns cultured neurons. Nature of the data set: Lysosphingolipid content of cultured neurons by NBDZF fluorescence tagging. It is filed as cell-based, chick. The conditions noted are these: following exposure to 50 µM lysosphingolipid for 1 hour.
Excerpt: Agonist-binding to metabotropic receptors influences the levels of lysosphingolipid in neuronal membranes. However, there is no convenient methodology available for the measurement of lysosphingolipid content in cultured neurons. As a result, a sensitive method of fluorometric tracing has been devised and is described herein. The measurement of lysosphingolipid content in cultured neurons is based on the stable fluorescence-tagging procedure using 4-fluoro, 7-nitrobenzofuran (NBDZF) described by Nozowa et al J. Neutochem. 59:607-609, 1992). The procedure was applied to: resting neurons; neurons exposed to 100 µM metabotropic receptor agonist for 1 hour; resting neurons exogenously enriched in lysosphingolipids; and neurons exogenously enriched in lysosphingolipids and exposed to metabotropic receptor agonist for 1 hour. The neurons were scraped in batches of 10^7 (1 Petri dish, approximately 8 cm in diameter, is equivalent to 2 mg membrane protein) and subjected to anaylsis.
as §1
Sphingolipid content of neurons exposed to sphingosine, lysocerebroside, and lysosphingomyelin was examined as follows. A Petri dish containing approximately 10^7 neurons was incubated with 5 µCi [^3H]myo-Ins in 3 ml DMEM overnight to prelabel the phosphoinositide InsP3 may contain. The neurons were washed with PBS and 3 ml of PBS containing 4.5 g/l glucose was added. Preparations of sphingosine, lysocerebroside, lysosphingomyelin (Sigma Chemical Co., St. Louis, MO) and combinations of each were prepared as the hydrochloride salt dissolved in PBS. The lysosphingolipids were added to the Petri dishes to produce a concentration ranging from 0 - 150 µM. The dishes were held at room temperature for 0.5, 1, or 2 hours, then washed with PBS and incubated with 5 Units of trypsin in glucose/PBS for […] at 37°C. Trypsinization removes non-specifically bound lysosphingolipids that may adhere to extracellular plasma membrane protein domains. Non-specific adherence between cationic micelles of lysosphingolipids and the neuronal glycocalyx is avoided by performing the experiments with lysosphingolipid concentrations below the critical micelle concentration. Neurons were analyzed for lysosphingolipid content as described above.

For the compound `CCCCCCCCCCCCC/C=C/[C@@H](O)[C@@H](N)COP(=O)([O-])OCC[N+](C)(C)C` [lysosphingomyelin, sphingosyl phosphorylcholine], in data set [1], the “membrane lysosphingolipid content, 0 hours of incubation” value is 5±1 pmoles lysosphingolipid/mg plasma membrane protein; the “membrane lysosphingolipid content, 0.5 hours of incubation” value is 65±15 pmoles lysosphingolipid/mg plasma membrane protein; the “membrane lysosphingolipid content, 1.0 hours of incubation” value is reported as 110±15 pmoles lysosphingolipid/mg plasma membrane protein; the “membrane lysosphingolipid content, 2.0 hours of incubation” value is on record as 120±10 pmoles lysosphingolipid/mg plasma membrane protein. Also, the “membrane lysosphingolipid content, 3.0 hours of incubation” value in data set [1] is 145±25 pmoles lysosphingolipid/mg plasma membrane protein. In data set [2], the “Ins-P-n with Lysosphinogolipid Modulator, agonist Aspartate” value was 1.00±0.06^e; the “enhancement of InsP3 level caused by sphingosine or by metabotropic glutamate receptor agonists” value is listed as “blocked this enhancement”; the InsP3 signalling result is recorded as “potently modulated InsP3 signalling”. Besides, the “content of sphingosine in the neurons” value in data set [3] stood at 105 ± 0.15 pmoles/mg protein.

`CCCCCCCCCCCCC/C=C/[C@@H](O)[C@@H](N)CO[C@@H]1O[C@H](CO)[C@H](O)[C@H](O)[C@H]1O` [psychosine]: in data set [1], the “membrane lysosphingolipid content, 0 hours of incubation” value was 45±5 pmoles lysosphingolipid/mg plasma membrane protein; the “membrane lysosphingolipid content, 0.5 hours of incubation” value was 75±20 pmoles lysosphingolipid/mg plasma membrane protein; the “membrane lysosphingolipid content, 1.0 hours of incubation” value is 120±15 pmoles lysosphingolipid/mg plasma membrane protein; the “membrane lysosphingolipid content, 2.0 hours of incubation” value is recorded as 180±15 pmoles lysosphingolipid/mg plasma membrane protein. The “membrane lysosphingolipid content, 3.0 hours of incubation” value in data set [1] is given as 175±20 pmoles lysosphingolipid/mg plasma membrane protein. Moreover, in data set [2], the “Ins-P-n with Lysosphinogolipid Modulator, agonist Aspartate” value was 1.00±0.06^e; the “enhancement of InsP3 level caused by sphingosine or by metabotropic glutamate receptor agonists” value is “blocked this enhancement”; the InsP3 signalling result is reported as “potently modulated InsP3 signalling”. The “content of sphingosine in the neurons” value in data set [3] is given as 220 ± 45 pmoles/mg protein.

Regarding `CCCCCCCCCCCCC/C=C/[C@@H](O)[C@@H](N)CO` [sphingosine], in data set [1], the “membrane lysosphingolipid content, 0 hours of incubation” value is 105±5 pmoles lysosphingolipid/mg plasma membrane protein; the “membrane lysosphingolipid content, 0.5 hours of incubation” value was 113±15 pmoles lysosphingolipid/mg plasma membrane protein; the “membrane lysosphingolipid content, 1.0 hours of incubation” value is 140±15 pmoles lysosphingolipid/mg plasma membrane protein; the “membrane lysosphingolipid content, 2.0 hours of incubation” value is listed as 165±20 pmoles lysosphingolipid/mg plasma membrane protein. Moreover, the “membrane lysosphingolipid content, 3.0 hours of incubation” value in data set [1] is on record as 175±25 pmoles lysosphingolipid/mg plasma membrane protein. Besides, in data set [2], the “basal, unstimulated InsP3 level in cortical neurons” value is on record as “tonically enhanced” and the InsP3 signalling result is “potently modulated InsP3 signalling”. For the same compound, the “content of sphingosine in the neurons” value in data set [3] was found to be 430 ± 70 pmoles/mg protein.
